Two compounds from patent US6191153A, “Use of 2-amino-6-n-propyl-amino-4,5,6,7-tetrahydrobenzothiazole as a pharmaceutical composition having an antidepressant activity” (Boehringer Ingelheim KG, priority 1992, dated 2001) can be followed below.

The test system of data set [1] is rats. The data set is described as follows: Forced swimming test (immobility time, antidepressant activity). Conditions: parenteral, eight rats. Format: in vivo. As to the method:
Details of this behavioural test are described for example by Willner, Psychopharmacology 83, 1-16 (1984) and by Borsini and Meli, Psychopharmacology 94, 147-160 (1988).
Pramipexol (SND 919) was investigated on eight rats, by comparison with amineptine, a known antidepressant. Both substances were dissolved in physiological saline solution and administered by parenteral route.

For data set [2] the following is noted: in vivo.
The conditions of data set [3]: in vivo. This is another data set of the same source.

Consider `O=C(O)CCCCCCNC1c2ccccc2CCc2ccccc21` [Amineptine, reference compound], for which, in data set [1] (dose 20.00 mg/kg), the Immobility time stood at 134 ± 19 s.
In general, bioavailability refers to dose-corrected exposure relative to a reference, in per cent. Read a high bioavailability as much systemic uptake. The half-life is the time in which the quantity being followed falls by half. In the case of `CCCN[C@H]1CCc2nc(N)sc2C1` [SND 919, 2-amino-6-n-propyl-amino-4,5,6,7-tetrahydrobenzothiazole], the bioavailability in data set [2] is > 80%. In addition, the half-life in data set [2] is 12.5 h. In addition, the Immobility time in data set [1] (dose 0.03 mg/kg) turned out to be 210 ± 14 s; in data set [1] (dose 0.10 mg/kg), 165 ± 6 s; in data set [1] (dose 0.30 mg/kg), 102 ± 17 s. The tolerability entry in data set [3] is listed as “extremely well tolerated”.
